Reference: article PMC9822352, “Design, Synthesis and Evaluation of New Multifunctional Benzothiazoles as Photoprotective, Antioxidant and Antiproliferative Agents” (Molecules, 2022)

Tested on: HaCat cell line
Experiment: Pro-apoptotic activity (Annexin V method), HaCat
Type: cell-based, human
Settings: 24 h
Method: The Annexin V assay was conducted at two concentrations approaching IC50 values toward the selected cell lines reported in Table 3. The complete set of data is reported in Table 4, while representative data from the analysis of the corresponding Muse Analyzer plots are shown in Figure 2.
Apoptosis assays were performed with a Muse® Cell Analyzer instrument (Merck Millipore, Burlington, MA, USA) and the kit on Colo-38 and HaCat cell lines according to the manufacturer’s protocol. Cells were treated and exposed to the compounds for 24 h. This procedure is based on the detection of PS (PhosphatidylSerine) exposed on the external membrane of apoptotic cells by Annexin V. Four populations of cells can be distinguished using this assay: live, early apoptotic, late apoptotic and dead cells. The MUSE cell analyzer can discriminate “early” from “late” apoptosis since “early apoptotic cells” are Annexin V-positive and 7-AAD-negative, while “late apoptotic cells” are positive to both Annexin V and 7-AAD (7-aminoactinomycin D). The DNA intercalating molecule 7AAD (7-aminoactinomycin D) is used as an indicator of cell membrane integrity, since it binds DNA only in cells undergoing late apoptosis/death stage, when the membrane integrity is lost. Muse Annexin V and Dead Cell reagent were used to dilute the cells (1:1). After 20 min of incubation between cell samples and the kit at room temperature in the dark, the samples were analyzed using 0.01% Triton X-100 as positive control. The data were acquired and recorded using the Annexin V and Dead Cell software module (Millipore, Billerica, MA, USA).

Row | Compound | Dead (%) (5 µM) | Early Apoptosis (%) (5 µM) | Late Apoptosis (%) (5 µM) | Dead (%) (10 µM) | Early Apoptosis (%) (10 µM) | Late Apoptosis (%) (10 µM) | Dead (%) (50 µM) | Early Apoptosis (%) (50 µM) | Late Apoptosis (%) (50 µM) | Dead (%) (100 µM) | Early Apoptosis (%) (100 µM) | Late Apoptosis (%) (100 µM)
1 | O=C(/C=C/c1ccc(O)c(O)c1)Nc1nc2ccccc2s1 [BZTcin4, (E)-N-(benzo[d]thiazol-2-yl)-3-(3,4-dihydroxyphenyl)acrylamide] | 0.41 | 1.83 | 3.05 | 1.96 | 1.13 | 15.56 | – | – | – | – | – | –
2 | COc1ccc(/C=C/C(=O)Nc2nc3ccccc3s2)cc1O [BZTcin5, (E)-N-(benzo[d]thiazol-2-yl)-3-(3-hydroxy-4-methoxyphenyl)acrylamide] | – | – | – | – | – | – | 0.19 | 2.29 | 3.73 | 0.20 | 1.84 | 5.00
